Consider 14 molecules from ChEMBL document CHEMBL1201862, “PubChem BioAssay data set” (2004).

Where a name gives a salt, the structure may show the parent alone.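 Grown in 96-well plates, cells were treated for 48 hours with each compound at five concentrations. Insufficient inhibition: endpoint recorded as highest concentration tested. Here, GI50 denotes the concentration required for 50% inhibition of growth.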 Active and inactive are the calls of the source. Rule as the data show it: active = GI50 up to about 1.1 µM and inactive = higher.

Among the test systems are RPMI-8226; SNB-78; NCI-H460; HCT-116; U-251; KM-20L2; IGROV-1; TK-10; SK-OV-3; HOP-18; UACC-62; KM12; DMS-114; M19-MEL; NCI-H226; COLO 205; DMS-273; T47D; MDA-MB-231; MCF7.
Common to all, as to experiment: inhibition of tumour cell growth, NCI panel, 48 h

As to `COC(=O)C(CC=O)C(=O)C(=O)Nc1cccc(C(F)(F)F)c1` (configuration not stated), the GI50 with RPMI-8226, in the assay with SNB-78, with NCI-H460, with HCT-116, in the assay on U-251 and with KM-20L2 was > 100 µM (inactive) each time. Besides, the GI50 with IGROV-1, with TK-10, with SK-OV-3, in the assay with HOP-18, in the assay on UACC-62 and in the assay on KM12 was > 100 µM (inactive) in each case. In addition, the GI50 with DMS-114, in the assay with M19-MEL and in the assay on NCI-H226 was > 100 µM (inactive) each time.
`Cn1c(CCC#N)nc2ccc(Br)cc2c1=O`: the GI50 with RPMI-8226, with COLO 205, with NCI-H460, in the assay with U-251, in the assay on KM-20L2 and in the assay with IGROV-1 was > 100 µM (inactive) throughout. Moreover, the GI50 in the assay on TK-10, with SK-OV-3, in the assay on UACC-62, in the assay with KM12, in the assay with DMS-114 and in the assay on NCI-H226 was > 100 µM (inactive) each time.
For the molecule `O=C(O)CCSC(=O)Nc1ccccc1`, the GI50 with RPMI-8226, with SNB-78, in the assay on COLO 205, in the assay with NCI-H460, in the assay on HCT-116 and in the assay on DMS-273 was > 100 µM (inactive) throughout. Also, the GI50 in the assay with U-251 was > 100 µM (inactive); in the assay with KM-20L2 it was > 100 µM (inactive); in the assay with IGROV-1, 94.6 µM (inactive); with TK-10 it was > 100 µM (inactive); in the assay with UACC-62, 64.4 µM (inactive); in the assay with KM12 it was > 100 µM (inactive). Besides, the GI50 in the assay with NCI-H226 was > 100 µM (inactive).
For `CCc1cccc(CC)c1NC(=O)C(=O)Cc1nc2ccccc2o1`, the GI50 with RPMI-8226, in the assay with SNB-78, in the assay with COLO 205, in the assay with NCI-H460, in the assay on HCT-116 and with U-251 was > 100 µM (inactive) each time. The GI50 in the assay on KM-20L2, in the assay on IGROV-1, in the assay on TK-10, with SK-OV-3, with HOP-18 and with UACC-62 was > 100 µM (inactive) in each case. The GI50 in the assay with KM12, with DMS-114, in the assay with M19-MEL and in the assay with NCI-H226 was > 100 µM (inactive) each time.
On to `Cc1ccc(-c2nc3ccccc3c(=O)n2NCC2(O)OCC(O)C(O)C2O)cc1` (configuration not stated), for which the GI50 with RPMI-8226, in the assay on SNB-78, with COLO 205, with NCI-H460, in the assay on HCT-116 and with DMS-273 was > 100 µM (inactive) each time. The GI50 in the assay with U-251, in the assay on KM-20L2, in the assay with SK-OV-3, with UACC-62, with KM12 and in the assay with DMS-114 was > 100 µM (inactive) each time. Besides, in the assay with M19-MEL, the GI50 was > 100 µM (inactive).
`N#CC(C#N)=C1NN=C(Cl)c2ccccc21`: the GI50 with RPMI-8226 is 57.3 µM (inactive); with COLO 205 it was > 100 µM (inactive); in the assay on NCI-H460, > 100 µM (inactive); in the assay on DMS-273, > 100 µM (inactive); with U-251, 96.4 µM (inactive); with KM-20L2, > 100 µM (inactive). Also, the GI50 is > 100 µM (inactive) in the assay on IGROV-1; > 100 µM (inactive) with TK-10; > 100 µM (inactive) with SK-OV-3; 37.3 µM (inactive) in the assay on HOP-18; 70.5 µM (inactive) in the assay on UACC-62; > 100 µM (inactive) in the assay with KM12. In addition, the GI50 with DMS-114 and in the assay with M19-MEL was > 100 µM (inactive) each time.
In the case of `Cc1cc2c(=O)cc(-c3ccc(C(=O)O)cc3)oc2c(C(N)=O)c1C`, the GI50 with RPMI-8226, in the assay on SNB-78, in the assay on COLO 205, with NCI-H460, in the assay on HCT-116 and in the assay with DMS-273 was > 100 µM (inactive) throughout. For the same molecule, the GI50 in the assay with U-251, in the assay on KM-20L2, in the assay with IGROV-1, in the assay on TK-10, in the assay on SK-OV-3 and in the assay on UACC-62 was > 100 µM (inactive) in each case. Moreover, the GI50 with KM12, in the assay with DMS-114 and with M19-MEL was > 100 µM (inactive) throughout.
Take `CC1CC(=O)Nc2ccc(Cl)cc2N1C(=O)CN1CCC(CCCCN(C)C)CC1` (configuration not stated): the GI50 in the assay on RPMI-8226, in the assay with COLO 205, in the assay with NCI-H460, in the assay on HCT-116, in the assay on DMS-273 and with U-251 was > 100 µM (inactive) each time. The GI50 in the assay on KM-20L2 is 43.2 µM (inactive); in the assay on IGROV-1, > 100 µM (inactive); in the assay with TK-10, > 100 µM (inactive); in the assay on SK-OV-3, > 100 µM (inactive); with HOP-18, > 100 µM (inactive); with UACC-62, > 100 µM (inactive). Besides, the GI50 in the assay with DMS-114 and in the assay with NCI-H226 was > 100 µM (inactive) each time.
On to `CCCCC(C(=O)CCC(=O)Nc1ccc(Cl)cc1)C(=O)C(C)C` (configuration not stated), for which the GI50 in the assay on RPMI-8226, in the assay on SNB-78, with COLO 205, in the assay on NCI-H460, with HCT-116 and with DMS-273 was > 100 µM (inactive) in each case. Further, the GI50 in the assay with U-251 is > 100 µM (inactive); in the assay on KM-20L2 it was > 100 µM (inactive); with IGROV-1, > 100 µM (inactive); with TK-10, > 100 µM (inactive); with SK-OV-3, > 100 µM (inactive); in the assay on UACC-62, 18.2 µM (inactive). Further, the GI50 in the assay with KM12, in the assay on DMS-114, in the assay on M19-MEL and in the assay with NCI-H226 was > 100 µM (inactive) in each case.
For `O=S1(=O)OCCOS(=O)(=O)C1I`, the GI50 in the assay on RPMI-8226, in the assay on SNB-78, with COLO 205, with HCT-116, with DMS-273 and with IGROV-1 was > 100 µM (inactive) in each case. In addition, the GI50 in the assay with TK-10 is > 100 µM (inactive); with SK-OV-3 it was > 100 µM (inactive); in the assay on UACC-62, 40.1 µM (inactive); in the assay with KM12 it was > 100 µM (inactive); in the assay on DMS-114 it was > 100 µM (inactive); with M19-MEL, > 100 µM (inactive). The GI50 with NCI-H226 is 28.6 µM (inactive).
In the case of `CN(C)c1ccc(/C=C/C(=O)c2ccccc2)cc1Br`, the GI50 in the assay with RPMI-8226 is 13.2 µM (inactive); with COLO 205, 18.3 µM (inactive); in the assay on NCI-H460, 35.7 µM (inactive); with U-251 it was 18.5 µM (inactive); in the assay on KM-20L2, 25.1 µM (inactive); with IGROV-1 it was 20.2 µM (inactive). Besides, the GI50 is 26.1 µM (inactive) in the assay with TK-10; 33 µM (inactive) in the assay with SK-OV-3; 16.5 µM (inactive) with UACC-62; 15.8 µM (inactive) in the assay on KM12; 17.3 µM (inactive) in the assay on DMS-114; 18.7 µM (inactive) in the assay with M19-MEL.
As to `C[C@H]1NC(=O)C2CCCCN2C(=O)CN(C)C(=O)CNC(=O)C2CCCCN2C(=O)[C@@H](NC(=O)c2nc3ccccc3cc2O)[C@@H](C)NC(=O)C2CCCCN2C(=O)CN(C)C(=O)CNC(=O)[C@@H]2CCCCN2C(=O)C1NC(=O)c1nc2ccccc2cc1O` (some centres not stated), the GI50 was 0.274 µM (active) with RPMI-8226; 0.0865 µM (active) in the assay on SNB-78; 0.252 µM (active) in the assay on COLO 205; 0.188 µM (active) in the assay on NCI-H460; 0.0255 µM (active) in the assay with DMS-273; 0.0153 µM (active) in the assay with U-251. Also, the GI50 with KM-20L2 is 0.378 µM (active); with IGROV-1, 0.283 µM (active); in the assay on TK-10 it was 0.525 µM (active); in the assay on SK-OV-3, 0.482 µM (active); with UACC-62 it was 0.0229 µM (active); in the assay with KM12, 0.27 µM (active). Besides, the GI50 in the assay with DMS-114 was 0.23 µM (active); in the assay with M19-MEL, 0.181 µM (active); with NCI-H226 it was 0.0664 µM (active).
For `CN1OC2OC(=O)OC2[C@H]1[C@H]1O[C@H](c2ccccc2)OC1(C)c1cc(OC(=O)c2ccccc2)ccc1OC(=O)c1ccccc1` (some centres not stated), the GI50 in the assay on RPMI-8226, in the assay on SNB-78, with COLO 205, in the assay on NCI-H460, in the assay on HCT-116 and in the assay on DMS-273 was > 50 µM (inactive) throughout. For the same molecule, the GI50 in the assay with U-251, in the assay with KM-20L2, with IGROV-1, with TK-10, in the assay on SK-OV-3 and with KM12 was > 50 µM (inactive) throughout. In addition, the GI50 in the assay on DMS-114, in the assay on M19-MEL and in the assay on NCI-H226 was > 50 µM (inactive) throughout.
For the molecule `CCc1ccc2c(c1)N(CC(C)CN(C)C)c1ccccc1S2` (configuration not stated) [ETYMEMAZINE HYDROCHLORIDE], the GI50 with T47D was 3.66 µM (inactive); in the assay with RPMI-8226 it was 2.17 µM (inactive); with COLO 205 it was 3.29 µM (inactive); in the assay on NCI-H460 it was 3.33 µM (inactive); with HCT-116, 3.65 µM (inactive); in the assay on U-251, 5.12 µM (inactive). Besides, the GI50 is 4.98 µM (inactive) in the assay with IGROV-1; 4.81 µM (inactive) in the assay with TK-10; 4.89 µM (inactive) in the assay with MDA-MB-231; 6.53 µM (inactive) in the assay with SK-OV-3; 3.92 µM (inactive) in the assay on MCF7; 5.31 µM (inactive) in the assay on UACC-62. Besides, the GI50 with KM12 is 3.61 µM (inactive); in the assay on NCI-H226, 9.86 µM (inactive).
